Reference: US10934310B2, “Inhibitors of Bruton's tyrosine kinase and method of their use” (JANSSEN PHARMACEUTICA NV, priority 2015, dated 2021)

These compounds were tested against unphosphorylated-BTK kinase domain (UP-BTK), GST-tagged human BTK (389-659aa) (Homo sapiens (Human), UniProt Q06187) (assay: BTK Kinase Lanthascreen Binding Assay). Conditions: compound, 50 nM Tracer 236, 2 nM anti-GST antibody, 60 minutes; pIC50 = negative log of the IC50 in molar.
Experimental: BTK Kinase Lanthascreen Binding Assay:
A BTK kinase lanthascreen binding assay monitors compound binding to unphosphorylated-BTK kinase domain (UP-BTK), by competing with a fluorescent labeled tracer. […] Data were analyzed using Xlfit™ version 5.3 from ID Business Solutions (Guildford), Microsoft Excel add-in. pIC50 refers to the negative log of the IC50 in molar.

unphosphorylated-BTK kinase domain (UP-BTK), GST-tagged human BTK (389-659aa), sequence (Q06187 389-659): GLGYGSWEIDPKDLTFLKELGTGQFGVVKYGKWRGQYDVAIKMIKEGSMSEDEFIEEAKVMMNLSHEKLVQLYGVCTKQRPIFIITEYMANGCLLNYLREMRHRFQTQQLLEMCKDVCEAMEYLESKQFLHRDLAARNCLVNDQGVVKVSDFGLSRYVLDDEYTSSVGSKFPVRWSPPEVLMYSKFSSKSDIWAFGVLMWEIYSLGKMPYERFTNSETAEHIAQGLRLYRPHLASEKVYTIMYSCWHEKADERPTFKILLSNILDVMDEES

| Compound | BTK_I_binding pIC50 |
| --- | --- |
| Cc1cc(Oc2ccccc2)ccc1N1C(=O)Nc2c(C(=O)N[C@H]3CC[C@H](O)CC3)sc3nccc1c23 (single isomer, unassigned) [Example 85, N-((1R,4R)-4-Hydroxycyclohexyl)-5-(*S)-(2-methyl-4-phenoxyphenyl)-4-oxo-4,5-dihydro-3H-1-thia-3,5,8-triazaacenaphthylene-2-carboxamide] | 7.67 |
| CCC(=O)N[C@@H]1CC[C@H](NC(=O)c2sc3nccc4c3c2NC(=O)N4c2ccc(Oc3ccccc3)cc2C)C1 (single isomer, unassigned) [Example 87, 5-(*S)-(2-Methyl-4-phenoxyphenyl)-4-oxo-N-((1S,3R)-3-propionamidocyclopentyl)-4,5-dihydro-3H-1-thia-3,5,8-triazaacenaphthylene-2-carboxamide] | 7.87 |
| CCC(=O)N[C@H]1CC[C@@H](NC(=O)c2sc3nccc4c3c2NC(=O)N4c2ccc(Oc3ccccc3)cc2C)CC1 (single isomer, unassigned) [Example 92, 5-(*S)-(2-Methyl-4-phenoxyphenyl)-4-oxo-N-((1S,4S)-4-propionamidocyclohexyl)-4,5-dihydro-3H-1-thia-3,5,8-triazaacenaphthylene-2-carboxamide] | 6.91 |
| CCC(=O)N[C@H]1CC[C@@H](NC(=O)c2sc3nccc4c3c2NC(=O)N4c2ccc(Oc3ccccc3)cc2C)CC1 (single isomer, unassigned) [Example 93, 5-(*R)-(2-Methyl-4-phenoxyphenyl)-4-oxo-N-((1S,4S)-4-propionamidocyclohexyl)-4,5-dihydro-3H-1-thia-3,5,8-triazaacenaphthylene-2-carboxamide] | 6.99 |
| CC(=O)N[C@H]1CC[C@@H](NC(=O)c2sc3nccc4c3c2NC(=O)N4c2ccc(Oc3ccccc3)cc2C)CC1 (single isomer, unassigned) [Example 94, N-((1S,4S)-4-Acetamidocyclohexyl)-5-(*S)-(2-methyl-4-phenoxyphenyl)-4-oxo-4,5-dihydro-3H-1-thia-3,5,8-triazaacenaphthylene-2-carboxamide] | 7.59 |
| CC(=O)N[C@H]1CC[C@@H](NC(=O)c2sc3nccc4c3c2NC(=O)N4c2ccc(Oc3ccccc3)cc2C)CC1 (single isomer, unassigned) [Example 95, N-((1S,4S)-4-Acetamidocyclohexyl)-5-(*R)-(2-methyl-4-phenoxyphenyl)-4-oxo-4,5-dihydro-3H-1-thia-3,5,8-triazaacenaphthylene-2-carboxamide] | 6.14 |
| C=CC(=O)N[C@@H]1CC[C@H](NC(=O)c2sc3nccc4c3c2NC(=O)N4c2ccc(Oc3ccccc3)cc2C)C1 (single isomer, unassigned) [Example 101, N-((1S,3R)-3-Acrylamidocyclopentyl)-5-(*S)-(2-methyl-4-phenoxyphenyl)-4-oxo-4,5-dihydro-3H-1-thia-3,5,8-triazaacenaphthylene-2-carboxamide] | 7.95 |
| Cc1cc(Oc2ccccc2)ccc1N1C(=O)Nc2c(C(=O)N[C@H]3CC[C@@H](NC(=O)CN(C)C)C3)sc3nccc1c23 (single isomer, unassigned) [Example 102, N-((1S,3R)-3-(2-(dimethylamino)acetamido)cyclopentyl)-5-(*S)-(2-methyl-4-phenoxyphenyl)-4-oxo-4,5-dihydro-3H-1-thia-3,5,8-triazaacenaphthylene-2-carboxamide] | 7.50 |
| CNCC(=O)N[C@@H]1CC[C@H](NC(=O)c2sc3nccc4c3c2NC(=O)N4c2ccc(Oc3ccccc3)cc2C)C1 (single isomer, unassigned) [Example 103, 5-(*S)-(2-Methyl-4-phenoxyphenyl)-N-((1S,3R)-3-(2-(methylamino)acetamido)cyclopentyl)-4-oxo-4,5-dihydro-3H-1-thia-3,5,8-triazaacenaphthylene-2-carboxamide] | 7.40 |
| C=CC(=O)N[C@@H]1CCC[C@H]1NC(=O)c1sc2nccc3c2c1NC(=O)N3c1ccc(Oc2ccccc2)cc1C (single isomer, unassigned) [Example 105, N-((1R,2R)-2-Acrylamidocyclopentyl)-5-(*S)-(2-methyl-4-phenoxyphenyl)-4-oxo-4,5-dihydro-3H-1-thia-3,5,8-triazaacenaphthylene-2-carboxamide] | 8.11 |
| C=CC(=O)N[C@H]1CCC[C@H]1NC(=O)c1sc2nccc3c2c1NC(=O)N3c1ccc(Oc2ccccc2)cc1C (single isomer, unassigned) [Example 107, N-((1R,2S)-2-Acrylamidocyclopentyl)-5-(*S)-(2-methyl-4-phenoxyphenyl)-4-oxo-4,5-dihydro-3H-1-thia-3,5,8-triazaacenaphthylene-2-carboxamide] | 8.25 |
| C=CC(=O)N[C@H]1CCCC[C@H]1NC(=O)c1sc2nccc3c2c1NC(=O)N3c1ccc(Oc2ccccc2)cc1C (single isomer, unassigned) [Example 108, N-((1R,2S)-2-Acrylamidocyclohexyl)-5-(*S)-(2-methyl-4-phenoxyphenyl)-4-oxo-4,5-dihydro-3H-1-thia-3,5,8-triazaacenaphthylene-2-carboxamide] | 7.56 |
| Cc1cc(Oc2ccccc2)ccc1N1C(=O)Nc2c(C(=O)N[C@@H]3CCC[C@H]3NC(=O)CN(C)C)sc3nccc1c23 (single isomer, unassigned) [Example 111, N-((1R,2R)-2-(2-(Dimethylamino)acetamido)cyclopentyl)-5-(*S)-(2-methyl-4-phenoxyphenyl)-4-oxo-4,5-dihydro-3H-1-thia-3,5,8-triazaacenaphthylene-2-carboxamide] | 7.68 |
| CNCC(=O)N[C@@H]1CCC[C@H]1NC(=O)c1sc2nccc3c2c1NC(=O)N3c1ccc(Oc2ccccc2)cc1C (single isomer, unassigned) [Example 112, 5-(*S)-(2-Methyl-4-phenoxyphenyl)-N-((1R,2R)-2-(2-(methylamino)acetamido)cyclopentyl)-4-oxo-4,5-dihydro-3H-1-thia-3,5,8-triazaacenaphthylene-2-carboxamide] | 8.04 |
| Cc1cc(Oc2ccccc2)ccc1N1C(=O)Nc2c(C(=O)N[C@@H]3CCC[C@H]3NC(=O)CN)sc3nccc1c23 (single isomer, unassigned) [Example 113, N-((1R,2R)-2-(2-Aminoacetamido)cyclopentyl)-5-(*S)-(2-methyl-4-phenoxyphenyl)-4-oxo-4,5-dihydro-3H-1-thia-3,5,8-triazaacenaphthylene-2-carboxamide] | 7.88 |
| C=CC(=O)N[C@@H]1CCC[C@@H]1NC(=O)c1sc2nccc3c2c1NC(=O)N3c1ccc(Oc2ccccc2)cc1C (single isomer, unassigned) [Example 114, N-((1S,2R)-2-Acrylamidocyclopentyl)-5-(*S)-(2-methyl-4-phenoxyphenyl)-4-oxo-4,5-dihydro-3H-1-thia-3,5,8-triazaacenaphthylene-2-carboxamide] | 6.81 |
| Cc1cc(Oc2ccccc2)ccc1N1C(=O)Nc2c(C(=O)N[C@@H]3CCC[C@@H]3N)sc3nccc1c23 (single isomer, unassigned) [Example 115, N-((1R,2S)-2-Aminocyclopentyl)-5-(*S)-(2-methyl-4-phenoxyphenyl)-4-oxo-4,5-dihydro-3H-1-thia-3,5,8-triazaacenaphthylene-2-carboxamide] | 7.57 |
| C=CC(=O)N[C@H]1CCC[C@@H]1NC(=O)c1sc2nccc3c2c1NC(=O)N3c1ccc(Oc2ccccc2)cc1C (single isomer, unassigned) [Example 116, N-((1S,2S)-2-Acrylamidocyclopentyl)-5-(*S)-(2-methyl-4-phenoxyphenyl)-4-oxo-4,5-dihydro-3H-1-thia-3,5,8-triazaacenaphthylene-2-carboxamide] | 7.30 |
| Cc1cc(Oc2ccccc2)ccc1N1C(=O)Nc2c(C(=O)N[C@@H]3CCC[C@H]3N)sc3nccc1c23 (single isomer, unassigned) [Example 120, N-((1R,2R)-2-Aminocyclopentyl)-5-(*S)-(2-methyl-4-phenoxyphenyl)-4-oxo-4,5-dihydro-3H-1-thia-3,5,8-triazaacenaphthylene-2-carboxamide] | 7.54 |
| CNCC(=O)N[C@H]1CCC[C@H]1NC(=O)c1sc2nccc3c2c1NC(=O)N3c1ccc(Oc2ccccc2)cc1C (single isomer, unassigned) [Example 122, 5-(*S)-(2-Methyl-4-phenoxyphenyl)-N-((1R,2S)-2-(2-(methylamino)acetamido)cyclopentyl)-4-oxo-4,5-dihydro-3H-1-thia-3,5,8-triazaacenaphthylene-2-carboxamide] | 7.18 |
| Cc1cc(Oc2ccccc2)ccc1N1C(=O)Nc2c(C(=O)N[C@H]3CCC[C@@H]3NC(=O)CN(C)C)sc3nccc1c23 (single isomer, unassigned) [Example 123, N-((1S,2S)-2-(2-(Dimethylamino)acetamido)cyclopentyl)-5-(*S)-(2-methyl-4-phenoxyphenyl)-4-oxo-4,5-dihydro-3H-1-thia-3,5,8-triazaacenaphthylene-2-carboxamide] | 7.07 |
| CNCC(=O)N[C@H]1CCCC[C@H]1NC(=O)c1sc2nccc3c2c1NC(=O)N3c1ccc(Oc2ccccc2)cc1C (single isomer, unassigned) [Example 125, 5-(*S)-(2-Methyl-4-phenoxyphenyl)-N-((1R,2S)-2-(2-(methylamino)acetamido)cyclohexyl)-4-oxo-4,5-dihydro-3H-1-thia-3,5,8-triazaacenaphthylene-2-carboxamide] | 7.11 |
